Where two headings read alike, the source gives them in different places.

The subject of data set [1] is CHO (Chinese hamster ovary). Description: MTT assay, CHO cells. The format is cell-based. To be noted: Cricetulus griseus, CHO, MTT assay, CHO cells, value (standard deviation); read-out: IC50 [μM] (±s) CHO. Here is the method:
(§1) Each medium was supplemented with 10% fetal bovine serum, 1% L-glutamine, and 1% penicillin/streptomycin solution. The cell lines were incubated at 37 °C in a humidified atmosphere containing 5% CO2. Cells were counted using the Fuchs–Rosenthal counting chamber (hemocytometer) with modifications.
(§2) The final product of this reaction gives violet formazan crystals. The number of live cells is proportional to the amount of formazan and is represented by the violet dye reagent. The details of the experiments are given, e.g., in [54].
(§3) Statistical analyses for the cytotoxic activity were carried out using the nonparametric Kruskal–Wallis H test for unpaired data and ANOVA Friedman two-way analysis of variance test for paired data. Statistical significance was tested using Dunn’s post-hoc test. The IC50 values compared to the control IC50 were calculated using GraphPad Prism v. 10.1.1. software.

For data set [2], the system named is HDFs (human dermal fibroblasts). The settings on record: MTT assay, published earlier, ref [41], read-out: IC50 [μM] (±s) HDFs; cited from earlier work. A general note: Tetrazolium dyes change colour on reduction, which living cells bring about.
Data set [3] concerns SKOV-3 (human ovarian carcinoma). To be noted: MTT assay, SKOV-3 cells; published earlier; ref [41]; read-out: IC50 [μM] (±s) SKOV-3; cited from earlier work.
In data set [4] the test system is HDFs (human dermal fibroblasts). Description: MTT assay, HDFs (normal cells). The settings on record: Fibroblast, value (standard deviation), read-out: IC50 [μM] (±s) HDFs. The format is cell-based. The procedure: as §1, §2, §3
Data set [5] has as its system PC-3 (human prostate carcinoma). The data set can be described thus: MTT assay, PC-3 cells. The format is cell-based. The settings on record: for IC50: Homo sapiens, PC-3, MTT assay, PC-3 cells, value (standard deviation), read-out: IC50 [μM] (±s) PC-3. The procedure:
as §1, §2, §3

Data set [6] can be described thus: Solubility (remark). It is filed as physicochemical. To be noted: remark among limitations, solvent not stated.
The subject of data set [7] is SKOV-3 (human ovarian carcinoma). The data set can be described thus: MTT assay, SKOV-3 cells. To be noted: for IC50: Homo sapiens, SK-OV-3, MTT assay, SKOV-3 cells, value (standard deviation), read-out: IC50 [μM] (±s) SKOV-3. It is filed as cell-based. The procedure:
as §1, §2, §3

For data set [8], the system named is A-549, PC-3, and SKOV-3. The data set can be described thus: MTT assay, statements over the cancer cell lines together. It is filed as cell-based, human. The settings on record: Homo sapiens, MTT assay; A-549, PC-3 and SKOV-3 together, summary of Table 3; read-out: IC50 stated over the cancer cell lines together. Here is the method: as §1, §2
In data set [9] the test system is A-549 (human lung carcinoma). Description: MTT assay, A-549 cells. The format is cell-based. To be noted: for IC50: Homo sapiens, A549, MTT assay, A-549 cells, value (standard deviation), read-out: IC50 [μM] (±s) A-549. The procedure:
as §1, §2, §3

In general, IC50 refers to the concentration needed to halve the response being measured. For `CC1(C)CC[C@]2(C(=O)O)CC[C@]3(C)C(=CC[C@@H]4[C@@]5(C)CC[C@H](O)C(C)(C)[C@@H]5CC[C@]43C)[C@@H]2C1` [Compound 1, oleanolic acid], the IC50 is 9.16 µM in data set [1], 24.9 µM in data set [2] and 18.8 µM in data set [3].
In the case of `CC1(C)CC[C@@]23CC[C@@]4(C)[C@]5(C)CCC6C(C)(C)[C@@H](O)CC[C@]6(C)C5C/C(=N\O)[C@]4(OC2=O)C3C1` (stereo partly drawn) [Compound 8, 3β-Hydroxy-12-hydroxyiminoolean-28-oic acid 28β→13β-olide], the IC50 in data set [1], in data set [4], in data set [5], in [7], in [8] and in data set [9] was greater than 100 µM each time. In data set [6], the solubility entry is recorded as “poor solubility”.
On to `CC1(C)CC[C@@]23CC[C@]4(C)[C@@](OC2=O)(C3C1)[C@@H](Br)CC1[C@@]2(C)CCC(=O)NC(C)(C)C2CC[C@]14C` (stereo partly drawn) [Compound 13, 12α-bromo-3-oxo-3a-aza-A-homoolean-28-oic acid 28β→13β-olide], for which the IC50 in [1] is greater than 100 µM; in [4] it was 89.4 µM; in data set [5], 73.1 µM; in [7] it was 75.8 µM; in [8], 11 to 90 µM; in data set [9], 89.3 µM. Further, the “Selectivity Index (SI) PC-3” value in data set [5] (IC50 of HDFs / IC50 of PC-3) was 1.22. In data set [6], the solubility entry was “poor solubility”. Besides, in data set [7] (IC50 of HDFs / IC50 of SKOV-3), the “Selectivity Index (SI) SKOV-3” value came out at 1.18. In data set [9] (IC50 of HDFs / IC50 of A-549), the “Selectivity Index (SI) A-549” value is 1.00.

These data come from PMC12072072 (International Journal of Molecular Sciences, 2025).
